Results on 14 compounds are retold here after US20260207637A1, “MODULATOR FOR PROMOTING BINDING OF BUTYROPHILIN 3A1/2A1” (priority 2023, published 2026).

Molecules are shown by their SMILES.

Data set [1] concerns MIApaca/FG2 cells. Briefly: EC50 assay of small molecule activated γδ T cells to kill MIApaca/FG2 tumor cells (10-fold dilution protocol). Type of data set: cell-based. The protocol: γδT cells and MIApaca/FG2 tumor cell lines were expanded and cultured in vitro. The MIApaca/FG2 cells were digested, and the cells were counted and resuspended in DMEM complete medium, the density of the cell suspension was adjusted and added into a 96-well plate at 5×10^3 cells/50 μL/well for overnight incubation. On the next day, the test compound and the control compound were diluted at a 10-fold ratio with γδT complete medium. 50 μL of diluted compound was transferred to the corresponding wells which had been plated with tumor cells, and the actual detection concentration was in the range of 10^−12-10^−5 M. γδT cells were resuspended in γδT complete medium, and the density of the cell suspension was adjusted according to the effector-target ratio of E:T=2:1, and then the cells were added to the corresponding wells at 1×10^4 cells/50 μL/well. After co-culture at 37° C., 5% CO2 for 20 hours, the cells were centrifuged. The supernatant was removed, and 50 μL of cell lysate containing luciferin substrate was added to each well. After standing for 18 minutes in the dark, the signal of chemiluminescence was detected. The EC50 value was calculated by four-parameter fitting, with the corresponding signal value of the well with only tumor cells as the minimum killing value, and the corresponding signal value of the well without tumor cells as the maximum killing value. The killing data of MIApaca/FG2 cells is as follows: […]

Data set [2] relates to MIApaca/FG2 cells. Briefly: EC50 assay of small molecule activated γδ T cells to kill MIApaca/FG2 tumor cells (3-fold dilution protocol). As to conditions: Homo sapiens, MIA PaCa-2, γδT cells + MIApaca/FG2, E:T=2:1, co-culture 20 hours, 0.05-100 nM, read-out: MIApaca killing (EC50). The format is cell-based. As to the method: γδT cells and MIApaca/FG2 tumor cell lines were expanded and cultured in vitro. MIApaca/FG2 cells were digested, and the cells were counted and resuspended in DMEM complete medium, the density of the cell suspension was adjusted and added into a 96-well plate at 5×10^3 cells/100 […]/well for overnight incubation. On the next day, the test compound and the control compound were diluted at a 3-fold ratio with DMSO, and 4 μL of the diluted compound was added to 96 μL of culture medium for 25-fold dilution. 5 μL of 25-fold diluted compound was transferred to the corresponding well which had been plated with tumor cells, and the actual detection concentration was in the range of 0.05-100 nM. γδT cells were resuspended in γδT complete medium, and the density of the cell suspension was adjusted according to the effector-target ratio of E:T=2:1, and then the cell was added to the corresponding well at 1×10^4 cells/100 μL/well. After co-culture at 37° C., 5% CO2 for 20 hours, the cells were centrifuged. The supernatant was removed, and 50 μL of cell lysate containing fluorescein substrate was added to each well. After standing for 18 minutes in the dark, the signal of chemiluminescence was detected. The EC50 value was calculated by four-parameter fitting, with the corresponding signal value of the well with only tumor cells as the minimum killing value, and the corresponding value of the well without tumor cells as the maximum killing value. The killing data of MIApaca/FG2 cells is as follows: […]

Data set [3] in a line: Stability experiment of compounds in human liver microsomes. Conditions: NADPH, 37° C., read-out: T1/2 in human liver microsomes. Type of data set: in vitro ADME. The protocol: Compounds were prepared as a 10 mM stock solution with DMSO and then diluted with 80% acetonitrile-water to a 100 μM working solution for later use. Human liver microsomes were obtained from BIOIVT.
(1) The liver microsomes taken out from the refrigerator were placed in a 37° C. water bath thermostatic oscillator, pre-incubated for 5 min, and thawed for later use.
(2) A certain amount of NADPH was weighed and added to an appropriate amount of magnesium chloride solution to dissolve into a 2 mM solution for later use.
(3) A mixed solution of the warm incubation system (containing no β-NADPH) was prepared according to the proportions in the “composition of the experimental warm incubation system” above and dispensed at 165 μL/tubes (45 μL/tube for the negative control group and 120 μL/tube for the positive control group).
(4) For the sample at 0 min: 200 μL of internal standard working precipitant was added and then 30 μL of NADPH solution was added.
(5) For other samples: 135 μL NADPH solution was added to initiate the reaction (45 μL magnesium chloride solution was added for the negative control group), and incubated in a 37° C. water bath for 5, 15, 30, and 60 min (incubated in a 37° C. water bath for 60 min for the negative control group), then 60 μL was sampled and added to 200 µL of precipitant containing internal standard.
(6) For the positive control group: 90 L NADPH solution was added to initiate the reaction, and incubated in a 37° C. water bath for 5, 15 min, then 60 μL was sampled and added to 200 μL of precipitant containing internal standard.
(7) For neat sample: 297 μL of water was pipetted into a tube, 1000 μL of internal standard working solution was added, and 3 μL of test compound working solution was added.
(8) All samples were vortexed and centrifuged.
(9) 150 μL of the supernatant was sampled and added to 150 μL of water, mixed uniformly by vortex, and analyzed by LC-MS/MS. The half-life stability data of human liver microsomes is as follows: […]

Data set [4] can be described thus: Binding rate test of compounds and human plasma protein (equilibrium dialysis). The format is in vitro ADME. As to conditions: human plasma, equilibrium dialysis 6 hours, 37° C. As to the method:
(1) The dry dialysis membrane was soaked with ultrapure water for 20 min or more than 20 min, then soaked with 20% ethanol for 30 min to 1 h, and the membrane was rinsed with ultrapure water 2-3 times. Finally, the membrane was soaked with ultrapure water for 20 minutes for later use.
(2) The frozen plasma was thawed in a water bath at 37° C.
(3) The test compound was diluted into plasma preheated to 37° C. at a final concentration of 1 μM, and the final concentration of the control compound warfarin in plasma was 2 μM.
(4) The pre-treated dialysis membrane was assembled into the dialysis plate according to the specification of the product, and 120 μL of the receiving solution (100 mM phosphate buffer solution added 0.002% Tween 80) was added to one side of the permeable membrane in each dialysis well.
(5) 20 μL of each of the final solutions of the test compound and the control compound were added into a 96-well sample plate in duplicate, and the TO sample was obtained, which was stored in a refrigerator at −20° C. Another 20 μL of the above final solution was added to the other side of the membrane in the dialysis device in duplicate, and incubated at 37° C. by shaking at constant temperature for 6 hours.
(6) After 6 hours of incubation, 20 L of each of the dialyzed receiving solution and the administered plasma were weighed to obtain sample B and sample A in duplicate. The corresponding volume of corresponding blank plasma or receiving solution was added to sample B and sample A, respectively, so that the volume ratio of plasma to buffer in each sample well was 1:1. 300 μL of acetonitrile solution containing internal standard was added to all sample wells, and centrifuged after mixed uniformly.
(7) 200 μL of ultrapure water (150 μL for the control group) was added into the corresponding sample wells of the 96-well sample plate, and 300 μL of the supernatant (150 μL for the control group) was added into the sample well; the samples were analyzed after mixed uniformly. The free percentage and recovery rate of the compound in plasma were calculated using the following formula: Plasma protein binding rate (%)=1−free percentage, wherein free percentage (%)=CB/CA
wherein CB is the concentration of the compound in the receiving solution after equilibrium dialysis, CA is the concentration of the compound in the drug-dosed plasma after equilibrium dialysis, and CT0 is the initial concentration of the compound in plasma.
In general terms: In equilibrium dialysis only unbound substance equilibrates across the membrane.

[5] abbreviates: read-out: MIApaca killing (EC50), γδT cells + MIApaca/FG2, E:T=2:1, co-culture 20 hours, 10^-12-10^-5 M.
The mark [6] stands for this setting: Homo sapiens, MIA PaCa-2, γδT cells + MIApaca/FG2, E:T=2:1, co-culture 20 hours, 10^-12-10^-5 M, read-out: MIApaca killing (EC50).

Regarding `CC(C)OC(=O)[C@H](C)NP(=O)(CCC=C(CO)CO)Oc1ccccc1` (stereo partly drawn) [Compound 1, Isopropyl ((5-hydroxy-4-(hydroxymethyl)pent-3-en-1-yl)(phenoxy)phosphoryl)-L-alaninate], the EC50 in the data set with MIApaca/FG2 cells [1] (setting [5]) worked out at 57.1 nM.
Same read-out and setting: the value for `CCC(CC)COC(=O)[C@H](C)NP(=O)(CC/C=C(\C)CO)Oc1ccccc1` (stereo partly drawn) [Compound 2, 2-Ethylbutyl (((E)-5-hydroxy-4-methylpent-3-en-1-yl)(phenoxy)phosphoryl)-L-alaninate] was 0.19 nM.
In the case of `CC(C)OC(=O)[C@H](C)NP(=O)(OC/C=C(/CO)C(F)(F)F)Oc1ccccc1` (stereo partly drawn) [Compound 3, Isopropyl ((phenoxy)(((Z)-4,4,4-trifluoro-3-(hydroxymethyl)but-2-en-1-yl)oxy)phosphoryl)-L-alaninate], in the data set with MIApaca/FG2 cells [1] (setting [6]), the EC50 is 8 nM.
Turning to `CC/C(=C\CCP(=O)(N[C@@H](C)C(=O)OC(C)C)Oc1ccccc1)CO` (stereo partly drawn) [Compound 4, Isopropyl (((E)-5-hydroxy-4-ethylpent-3-en-1-yl)(phenoxy)phosphoryl)-L-alaninate], the EC50 in the data set with MIApaca/FG2 cells [1] (setting [5]) was 174 nM.
On the same count and under the same terms, the value for `CC(C)OC(=O)[C@H](C)NP(=O)(CC/C=C/CO)Oc1ccccc1` (stereo partly drawn) [Compound 5, Isopropyl (((E)-5-hydroxypent-3-en-1-yl)(phenoxy)phosphoryl)-L-alaninate] was 11.6 nM.
Consider `C/C(=C\CCP(=O)(N[C@@H](C)C(=O)OC1CCCC1)Oc1ccccc1)CO` (stereo partly drawn) [Compound 6, Cyclopentyl (((E)-5-hydroxy-4-methylpent-3-en-1-yl)(phenoxy)phosphoryl)-L-alaninate], for which, in the data set on MIApaca/FG2 cells [1] (setting [5]), the EC50 amounted to 0.098 nM.
Consider `C[C@H](NP(=O)(OC/C=C(/CO)C(F)(F)F)Oc1ccccc1)C(=O)OCC1CC1` (stereo partly drawn) [Compound 9, Cyclopropylmethyl ((phenoxy)(((Z)-4,4,4-trifluoro-3-(hydroxymethyl)but-2-en-1-yl)oxy)phosphoryl)-L-alaninate], for which the EC50 in the data set with MIApaca/FG2 cells [1] (setting [6]) was 9.9 nM.
Still for that read-out and setting: the value for `CCC(CC)COC(=O)[C@H](C)NP(=O)(OC/C=C(/CO)C(F)(F)F)Oc1ccccc1` (stereo partly drawn) [Compound 10, 2-Ethylbutyl ((phenoxy)(((Z)-4,4,4-trifluoro-3-(hydroxymethyl)but-2-en-1-yl)oxy)phosphoryl)-L-alaninate] was 12.8 nM.
Regarding `C[C@H](NP(=O)(OC/C=C(/CO)C(F)(F)F)Oc1ccccc1)C(=O)OC1CCCC1` (stereo partly drawn) [Compound 11, Cyclopentyl ((phenoxy)(((Z)-4,4,4-trifluoro-3-(hydroxymethyl)but-2-en-1-yl)oxy)phosphoryl)-L-alaninate], in the data set with MIApaca/FG2 cells [1] (setting [6]), the EC50 was 35.4 nM.
Still for that read-out and setting: the value for `C[C@H](NP(=O)(OC/C=C(/CO)C(F)(F)F)Oc1ccccc1)C(=O)O[C@H]1CCOC1` (stereo partly drawn) [Compound 12, (S)-tetrahydrofuran-3-yl ((phenoxy)(((Z)-4,4,4-trifluoro-3-(hydroxymethyl)but-2-en-1-yl)oxy)phosphoryl)-L-alaninate] was 5.1 nM.
Still for that read-out and setting: the result for `C[C@H](NP(=O)(OC/C=C(/CO)C(F)(F)F)Oc1ccccc1)C(=O)O[C@@H]1CCOC1` (stereo partly shown) [Compound 13] reads 6.6 nM; that for `CC(C)OC(=O)[C@H](C)NP(=O)(OC/C=C(/CO)C(F)(F)F)Oc1cccc2ccccc12` (stereo partly drawn) [Compound 14, isopropyl ((naphthyloxy)(((Z)-4,4,4-trifluoro-3-(hydroxymethyl)but-2-en-1-yl)oxy)phosphoryl)-L-alaninate], 67 nM.
For the compound `C/C(=C\CC(F)(F)P(=O)(N[C@@H](C)C(=O)O[C@@H]1CCOC1)Oc1ccccc1)CO` (stereo partly drawn) [Compound 37, (R)-tetrahydrofuran-3-yl (((E)-1,1-difluoro-5-hydroxy-4-methylpent-3-en-1-yl)(phenoxy)phosphoryl)-L-alaninate], the EC50 in the data set with MIApaca/FG2 cells [2] is 0.2 nM. In addition, in data set [3], the half-life turned out to be 8.11 min. Besides, in data set [4], the fraction unbound at 6 h, 1 μM is 0.098.
Regarding `C/C(=C\COP(=O)(O)OP(=O)(O)O)CO` [HMBPP control, reference compound], in the data set on MIApaca/FG2 cells [1] (γδT cells + MIApaca/FG2, E:T=2:1, co-culture 20 hours, 10^-12-10^-5 M, read-out: MIApaca killing (EC50)), the EC50 amounted to 2.1 nM.

The fraction unbound is free concentration divided by total concentration. A high value points to weak binding.
